According to patent US20190209506A1, “METHODS OF REDUCING OR PREVENTING OXIDATION OF LDL OR LIPID MEMBRANES IN A SUBJECT IN NEED THEREOF” (Amarin Pharmaceuticals Ireland Limited, priority 2018, published 2019):

Tests used:
[1] = tested on: Human sdLDL particles; assay: Kinetic model of MDA formation in sdLDL oxidation (Example 15); assay type: biochemical
Procedure: Human sdLDL particles were isolated and incubated in vitro with vehicle or with varying concentrations of EPA, DHA, or EPA and DHA. Once incubated, copper sulfate (CuSO4) was added to induce oxidation of the sdLDL particles. The sdLDL particles were then assayed for the detection of malondialdehyde (MDA), a known marker of oxidation.
Various kinetic models were evaluated and eventually fit to the sdLDL oxidation data to describe the concentration of MDA in each sample. Both population parameter estimates and associated variabilities were generated for the formation of MDA (Kf) and degradation of MDA (Ke) rates.
The final kinetic model is a 1 compartment model having a first order Ke and an additive first order Kf.

[2] = Membrane cholesterol domain structural integrity, x-ray diffraction (Example 9); conditions: C/P 1.5:1
Procedure: Multilamellar vesicles (MLVs) were prepared as binary mixtures that include palmitoyloleoylphosphatidylcholine (POPC) (1.0 mg total phospholipid per sample) and cholesterol at an elevated cholesterol-to-phospholipid (C/P) mole ratio of 1.5:1. […] Samples were shell-dried under nitrogen gas and placed under vacuum for 3 hours to remove residual solvent at room temperature. After desiccation, each sample was resuspended in saline buffer (0.5 mM HEPES, 154 mM NaCl, pH 7.3) to yield a final phospholipid concentration of 2.5 mg/mL. Lipid suspensions were then vortexed for 3 minutes at ambient temperature to form MLVs.
Briefly, a 100 μL aliquot of each MLV preparation (containing 250 μg MLV) was transferred to a Lucite® sedimentation cell fitted with an aluminum foil substrate designed to collect MLVs into a single membrane pellet upon centrifugation. Samples were then loaded into a Sorvall AH-629 swinging bucket rotor (DuPont Corp., Wilmington, Del.) and centrifuged at 35,000 g, 5° C., for 90 minutes.
After centrifugal orientation, sample supernatants were aspirated and aluminum foil substrates, each supporting a single membrane pellet, were removed from the sedimentation cells. Sample pellets were dried for 5-10 minutes at ambient conditions, mounted onto curved glass supports, and placed in hermetically-sealed, brass or glass containers (for immediate analysis or temporary storage, respectively). All x-ray diffraction experiments were conducted at 20° C., 74% relative humidity. The latter was established by exposing membrane samples to saturated solutions of […] (K2C4H4O6.½H2O) for at least 1 hour prior to experimental analysis.
Oriented membrane samples were aligned at grazing incidence with respect to a collimated, mono-chromatic CuKα x-ray beam (Kα1 and Kα2 unresolved; λ=1.54 Å) produced by a Rigaku Rotaflex RU-200, high-brilliance microfocus generator (Rigaku-MSC, The Woodlands, Tex.) as previously described (Mason et al., Biophys. J., vol. 55(4), pages 769-778 (1989)). The samples were initially subjected to x-ray diffraction analysis at least 12 hours after formation of the membrane pellets and retested for up to several days. Analytical x-rays were generated by electron bombardment of a rotating copper anode and are filtered through a thin nickel foil to provide monochromatic radiation (λ=1.54 Å). Collimation of the x-ray beam was achieved using a single Franks mirror. Diffraction data were collected on a one-dimensional, position-sensitive electron detector (Hecus X-ray Systems, Graz, Austria) at a sample-to-detector distance of 150 mm from the sample site.
The d-space for any given membrane multi bilayer is a measurement of the unit cell periodicity of the membrane lipid bilayer (e.g., the distance from the center of one lipid bilayer to the next including surface hydration), and is calculated from Bragg's Law, hλ=2d sin θ, where h is the diffraction order, λ is the wavelength of the x-ray radiation (1.54 Å), d is the membrane lipid bilayer unit cell periodicity, and θ is the Bragg angle equal to one-half the angle between the incident beam and scattered beam.
The presence of cholesterol domains in a given membrane sample results in the production of distinct Bragg (diffraction) peaks having singular periodicity values of 34 and 17 Å (typically referred to as first- and second-order cholesterol domain peaks). Under the specific temperature and relative humidity conditions established for these experiments, the second-order, 17 Å cholesterol domain peak was well-delineated from other, neighboring cholesterol and phospholipid diffraction peaks and was thus used to quantitate relative cholesterol domain peak intensity. Routines written in Origin 8.6 (OriginLab Corporation, Northampton, Mass.) were used to determine total peak area (associated with all diffraction peaks in a given pattern) against which the second-order cholesterol domain peak was normalized.

[3] = tested on: HUVECs; assay: NO and ONOO^− release from HUVECs exposed to oxLDL, nanosensors (Example 8); assay type: cell-based, human; conditions: ECs exposed to oxLDL; compared to vehicle
Procedure: Human umbilical vein endothelial cells (HUVECs) were isolated into primary cultures from female donors by Clonetics (San Diego, Calif.) and purchased as proliferating cells. All cell culture donors were healthy, with no pregnancy or prenatal complications. […] The confluent cells (4 to 5×10^5 cells/35 mm dish) were placed with minimum essential medium containing 3 mM L-arginine and 0.1 mM BH4 [(6R)-5,6,7,8-tetrahydrobiopterin]. Before experimental use, the cells (from second or third passage) were rinsed twice with Tyrode-HEPES buffer with 1.8 mM CaCl2.
Plasma was immediately separated by centrifugation at 3,000 g for 10 minutes at 4° C.
Tris-NaCl buffer was added to the dialyzed LDL to adjust the protein concentration to 30 mg/mL. A 1-mL aliquot of 20 μM CuSO4 was added to 1 mL of dialyzed normal LDL.
Concurrent measurements of NO and ONOO^− were performed with tandem electrochemical nanosensors combined into one working unit with a total diameter of 200-400 nm. Their design was based on previously developed and chemically modified carbon-fiber technology. […]
The amperometric method (with a response time of 0.1 ms) provides a quantitative signal (current) that is directly proportional to changes (from basal levels) in NO or ONOO^− concentration. […] Basal NO or ONOO^− levels were measured by differential pulse voltammetry in separate experiments. […]

## CC/C=C\C/C=C\C/C=C\C/C=C\C/C=C\CCCC(=O)O [EPA, cis-5,8,11,14,17-eicosapentaenoic acid]
[1]; 5 μM, after 8 hours
  reduction of Kf (formation rate of MDA): 54%
[1]; 10 μM alone, predicted
  reduction of Kf predicted by the kinetic model: 73%
[2]; D/P mole ratio 1:30
  % change Vs control (cholesterol domain peak intensity): −65.5 ± 17.1%
  Relative Cholesterol Domain Peak Intensity: 14.6±5
  reduction in cholesterol domain peaks compared to vehicle: 65%
[2]; D/P mole ratio 1:60
  % change (vs. Control): −30.2 ± 27.9%
  Relative Cholesterol Domain Peak Intensity: 29.5 ± 10.9
[2]; D/P mole ratio 1:90
  % change (vs. Control): −15.0 ± 12.6%
  Relative Cholesterol Domain Peak Intensity: 36.0 ± 3.1
[3]
  increase in NO release: 45%
